Experimental findings from US8288383B2, “3-methyl-2- ( (2S) -2- (4- (3-methyl-L, 2, 4-oxadiazol-5-YL) phenyl) morpholino) -6- (pyrim-idin-4-yl) pyrimidin-4 (3H) -one as tau protein kinase inhibitor” (Sanofi, priority 2007, dated 2012) are described below.

Structures are written as SMILES. pIC50: −log10 of the molar value. Like-named read-outs stand apart in the source and are kept apart here.

One series concerns tau phosphorylation. Kind of series: Inhibitory activity on tau phosphorylation in vivo (pS396 Western blot of mouse cortex). The note with it: 10 mg/kg p.o., male CD-1 mice, cortex removed after 1 h, pS396 antibody; ** = statistically significant. As to the method:
Test compound was administrated to male CD-1 mice of 5-6 weeks weighing 25-35 g (Charles River Japan, inc.) at 10 mg/kg p.o. (0.5% polyethylen glycol sorbitan monolaurate 80 (Tween80)/water suspension) and after 1 h, mice were decapitated and cortex was promptly removed, followed by being frozen in liquid N2. […] Protein concentrations were determined using DC protein assay kit (BIO-RAD). Supernatants were diluted with sample buffer (62.5 mM Tris-HCl, 25% glycerol, 2% SDS, 0.01% Bromophenol Blue, pH6.8) to adjust the protein concentrations around […] and then boiled for […]. Samples (10 μg) were separated on 10% sodium dodecyl sulfate-polyacrylamide electrophoresis (SDS-PAGE) mini slab gels and transferred onto polyvinylidene difluoride (PVDF) membranes. Membranes were incubated with phosphate buffered saline (PBS) containing 5% non-fat milk for 1h at room temperature and then probed with pS396 anti-body (BIOSOURCE) over night at 4° C. Anti-rabbit IgG horseradish peroxidase (HRP) conjugated anti-body (Promega) was used as secondary anti-body. Membranes were visualized by Enhanced ChemiLuminescence (ECL) kit (Amerasham Bioscience) and detected by LAS1000 (Fuji Photo Film).
Background: A western blot detects proteins with antibodies after separation by electrophoresis.

In another series the target is CYP2D6 (Homo sapiens, UniProt P10635). The experiment in a line: Inhibitory activity on CYP2D6 (human recombinant CYPs). As to conditions: human recombinant CYP2D6, substrate ethylene glycol ester of luciferin-6'-methyl ether, 37° C., read-out: CYP 2D6 inhibition, IC50 value. It counts as in vitro ADME. As to the method:
The purpose of this pharmacokinetic study was to investigate the inhibitory effects of test compounds on the specific metabolic activity of human CYP isozymes using human recombinant CYPs in vitro. […] The specific substrate and positive control is ethylene glycol ester of luciferin-6′-methyl ether and quinidine, respectively. The substrate for the CYP isozyme was incubated with human recombinant CYPs in the presence or absence of the test compounds and the metabolic activity of the CYP isozyme was determined. The reaction mixture was preincubated at 37° C. without NADPH generating system. The reaction was started by the addition of NADPH generating system, and then terminated by the addition of acetonitrile. The activities of the human CYP isozymes were measured by fluorescence signal (CYP2D6) of reaction mixture. IC50 value for each compound was calculated by setting the data of reaction mixture without compound as 100% activity.

The mark [1] stands for this setting: probe ethylene glycol ester of luciferin-6'-methyl ether.

Sequence of CYP2D6 (P10635 whole entry): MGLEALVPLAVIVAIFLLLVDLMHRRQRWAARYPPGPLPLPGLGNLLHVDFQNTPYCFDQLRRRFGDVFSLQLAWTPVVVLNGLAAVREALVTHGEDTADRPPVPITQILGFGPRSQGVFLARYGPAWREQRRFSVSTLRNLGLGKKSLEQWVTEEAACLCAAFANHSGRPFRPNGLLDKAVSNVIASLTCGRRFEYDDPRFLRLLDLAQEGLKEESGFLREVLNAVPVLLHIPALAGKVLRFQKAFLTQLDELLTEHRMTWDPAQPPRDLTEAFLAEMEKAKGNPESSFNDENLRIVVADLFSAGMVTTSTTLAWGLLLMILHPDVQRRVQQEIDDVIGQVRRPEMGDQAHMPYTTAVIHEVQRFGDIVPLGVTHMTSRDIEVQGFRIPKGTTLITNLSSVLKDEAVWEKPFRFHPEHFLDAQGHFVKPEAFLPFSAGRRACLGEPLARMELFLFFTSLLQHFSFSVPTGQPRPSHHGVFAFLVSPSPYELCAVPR

As for `Cc1noc(-c2ccc([C@H]3CN(c4nc(-c5ccncn5)cc(=O)n4C)CCO3)cc2)n1` [Compound of the present invention, 3-Methyl-2-((2S)-2-(4-(3-methyl-1,2,4-oxadiazol-5-yl)phenyl)morpholino)-6-(pyrimidin-4-yl)pyrimidin-4(3H)-one], the melting point is 219 °C (dec.). Also, the “in vivo % phosphorylation against vehicle” value in the series with tau phosphorylation is 69.86** %. Further, the pIC50 on CYP2D6 is < 4.30.

For the compound `Cn1c(N2CCOC(c3nc(-c4ccccc4)no3)C2)nc(-c2ccncn2)cc1=O` (centres unmarked) [Compound 1, 1-Methyl-2-[2-(3-phenyl-[1,2,4]oxadiazol-5-yl)-morpholin-4-yl]-1H-[4,4′]bipyrimidinyl-6-one], the “in vivo % phosphorylation against vehicle” value in the series with tau phosphorylation was 92.12%. Further, the pIC50 on CYP2D6 (setting [1]) was < 4.30.

Take `Cn1c(N2CCOC(c3noc(-c4ccccc4)n3)C2)nc(-c2ccncn2)cc1=O` (centres unmarked) [Compound 2, 1-Methyl-2-[2-(5-phenyl-[1,2,4]oxadiazol-3-yl)-morpholin-4-yl]-1H-[4,4′]bipyrimidinyl-6-one]: the pIC50 at CYP2D6 (setting [1]) is < 4.60.

`Cn1ccnc1-c1ccc(C2CN(c3nc(-c4ccncn4)cc(=O)n3C)CCO2)cc1` (centres unmarked) [Compound 4, 1-Methyl-2-{2-[4-(1-methyl-1H-imidazol-2-yl)-phenyl]-morpholin-4-yl}-1H-[4,4′]bipyrimidinyl-6-one]: the melting point was 179.8 °C (dec.). For the same compound, on CYP2D6 (setting [1]), the negative logarithm of the IC50 (pIC50) is < 4.30.

A word on the pIC50: it is the negative decadic logarithm of the IC50, by convention in mol/L. The melting point is the temperature, or range, at which the solid turns liquid.
